Like-named read-outs stand apart in the source and are kept apart here.
What was measured:
SIRT1 = molecular target: T1, SIRT1 (Homo sapiens, UniProt Q96EB6); assay: SIRT1 enzyme activity test (deacetylase inhibition); assay type: biochemical; settings: 1 μM SIRT1, 500 μM NAD+, 10 μM substrate peptide
T1 sequence (Q96EB6 1-747): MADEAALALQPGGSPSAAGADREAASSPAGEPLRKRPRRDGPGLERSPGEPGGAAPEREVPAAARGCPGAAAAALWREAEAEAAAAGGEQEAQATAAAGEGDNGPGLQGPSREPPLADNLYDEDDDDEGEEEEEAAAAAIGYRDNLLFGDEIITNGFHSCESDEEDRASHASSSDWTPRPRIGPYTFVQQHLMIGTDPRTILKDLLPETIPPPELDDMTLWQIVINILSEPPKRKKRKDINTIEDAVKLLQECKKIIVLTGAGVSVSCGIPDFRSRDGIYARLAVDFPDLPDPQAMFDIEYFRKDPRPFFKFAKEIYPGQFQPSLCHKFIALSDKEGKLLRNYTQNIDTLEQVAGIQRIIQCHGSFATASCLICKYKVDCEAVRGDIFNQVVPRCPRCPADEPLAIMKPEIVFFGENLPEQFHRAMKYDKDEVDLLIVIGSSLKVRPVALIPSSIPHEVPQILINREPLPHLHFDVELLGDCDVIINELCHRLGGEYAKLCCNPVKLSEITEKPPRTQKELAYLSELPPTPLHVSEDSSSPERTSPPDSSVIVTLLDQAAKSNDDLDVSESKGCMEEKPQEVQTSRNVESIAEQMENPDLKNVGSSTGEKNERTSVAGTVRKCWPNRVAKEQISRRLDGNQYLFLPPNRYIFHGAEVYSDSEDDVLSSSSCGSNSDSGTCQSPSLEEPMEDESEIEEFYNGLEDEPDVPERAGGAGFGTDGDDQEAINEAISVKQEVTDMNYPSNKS

[1] = system: p53 acetylation levels in SH-SY5Y human neuroblastoma cells; assay: Effect of compounds on p53 acetylation level in cells (Western blot); assay type: cell-based; settings: ATRA-induced differentiation, compound 10 μM, 2 h, Figure 5
SIRT2 = molecular target: T2, SIRT2 (Homo sapiens, UniProt Q8IXJ6); assay: Inhibition of SIRT2 (as SIRT1 IC50 method)
T2 sequence (Q8IXJ6 1-389): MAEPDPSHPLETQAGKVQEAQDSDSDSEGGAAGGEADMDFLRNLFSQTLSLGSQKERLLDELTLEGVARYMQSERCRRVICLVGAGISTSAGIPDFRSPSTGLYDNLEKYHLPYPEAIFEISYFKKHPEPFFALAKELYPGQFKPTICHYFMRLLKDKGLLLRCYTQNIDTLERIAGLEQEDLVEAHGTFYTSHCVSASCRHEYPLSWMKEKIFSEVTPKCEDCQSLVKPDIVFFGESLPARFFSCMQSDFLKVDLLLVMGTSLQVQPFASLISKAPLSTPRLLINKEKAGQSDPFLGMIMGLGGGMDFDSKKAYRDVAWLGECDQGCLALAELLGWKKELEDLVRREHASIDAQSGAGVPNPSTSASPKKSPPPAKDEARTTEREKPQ

SIRT3 = molecular target: T3, SIRT3 (Homo sapiens, UniProt Q9NTG7); assay: Inhibition of SIRT3 (as SIRT1 IC50 method)
T3 sequence (Q9NTG7 1-399): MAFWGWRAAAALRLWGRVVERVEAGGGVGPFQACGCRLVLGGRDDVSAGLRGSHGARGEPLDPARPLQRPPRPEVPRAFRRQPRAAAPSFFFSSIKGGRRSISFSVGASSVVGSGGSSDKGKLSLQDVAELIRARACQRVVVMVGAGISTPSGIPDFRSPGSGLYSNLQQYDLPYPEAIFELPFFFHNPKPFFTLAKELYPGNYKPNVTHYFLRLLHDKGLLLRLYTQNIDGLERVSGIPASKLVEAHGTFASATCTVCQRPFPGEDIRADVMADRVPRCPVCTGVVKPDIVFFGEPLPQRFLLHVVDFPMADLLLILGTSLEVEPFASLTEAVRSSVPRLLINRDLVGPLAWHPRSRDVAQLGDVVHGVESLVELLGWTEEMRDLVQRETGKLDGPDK

SIRT5 = molecular target: T4, SIRT5 (Homo sapiens, UniProt Q9NXA8); assay: Inhibition of SIRT5 (as SIRT1 IC50 method)
T4 sequence (Q9NXA8 37-310): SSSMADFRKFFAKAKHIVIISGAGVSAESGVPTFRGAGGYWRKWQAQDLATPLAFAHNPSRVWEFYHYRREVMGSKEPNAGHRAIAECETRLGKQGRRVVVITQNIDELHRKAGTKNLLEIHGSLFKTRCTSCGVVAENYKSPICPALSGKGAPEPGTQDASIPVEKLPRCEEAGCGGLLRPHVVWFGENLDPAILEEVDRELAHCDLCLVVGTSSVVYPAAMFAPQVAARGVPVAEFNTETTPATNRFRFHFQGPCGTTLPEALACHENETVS

[2] = Table 2, 37 °C, 30 min, read-out: IC50
[3] = Table 3, SITR1 [sic], read-out: Inhibition of SIRT1 deacylation (IC50)

| Compound | IC50 (SIRT1; [2]) | IC50 (SIRT1; [3]) | effect on decrease of p53 acetylation level [1] | also measured |
| --- | --- | --- | --- | --- |
| COc1cc(C=C2C(=O)OC(C)(c3ccccc3)OC2=O)cc(I)c1O (stereo not drawn) [Compound S2, 5-(4-hydroxy-3-iodo-5-methoxybenzylidene) -2-methyl-2-phenyl-1,3-dioxane-4,6-dione] | 2.45 ± 0.37 µM |  |  |  |
| COc1cc(C=C2C(=O)OC(c3ccccc3)OC2=O)cc(I)c1O (stereo not drawn) [Compound S6, 5-(4-hydroxy-3-iodo-5-methoxybenzylidene) -2-phenyl-1,3-dioxane-4,6-dione] |  | 0.89 ± 0.01 µM | 抑制ATRA诱导的SH-SY5Y细胞分化过程中p53乙酰化水平降低 |  |
| CC1(c2ccccc2)OC(=O)C(=Cc2ccccc2)C(=O)O1 (stereo not drawn) [Compound S8, 5-benzylidene-2-methyl-2-phenyl-1,3-dioxane-4,6-dione] | > 50 µM |  |  |  |
| CC(C)Oc1ccccc1C=C1C(=O)OC(c2ccccc2)OC1=O (stereo not drawn) [Compound S14, 5-(2-isopropoxybenzylidene) -2-phenyl-1,3-dioxane-4,6-dione] | 14 ± 2.01 µM |  |  |  |
| O=C1OC(c2ccccc2)OC(=O)C1=Cc1cc(Cl)c(O)c(Cl)c1 (stereo not drawn) [Compound S15, 5-(3,5-dichloro-4-hydroxybenzylidene) -2-phenyl-1,3-dioxane-4,6-dione] |  | 1.2 ± 0.09 µM | 抑制ATRA诱导的SH-SY5Y细胞分化过程中p53乙酰化水平降低 |  |
| COc1cc(OC)c(C=C2C(=O)OC(c3ccccc3)OC2=O)cc1Br (stereo not drawn) [Compound S22, 5-(5-bromo-2,4-dimethoxybenzylidene) -2-phenyl-1,3-dioxane-4,6-dione] | 4.89 ± 0.35 µM |  |  |  |

Further lines, with some results ahead:

| IC50 (SIRT1; [2]) | IC50 (SIRT1; [3]) | Compound | effect on decrease of p53 acetylation level [1] | also measured |
| --- | --- | --- | --- | --- |
|  | 1.9 ± 0.53 µM | COc1cc(C=C2C(=O)OC(c3ccccc3)OC2=O)cc(Cl)c1O (stereo not drawn) [Compound S10, 5-(3-chloro-4-hydroxy-5-methoxybenzylidene) -2-phenyl-1,3-dioxane-4,6-dione] | 抑制ATRA诱导的SH-SY5Y细胞分化过程中p53乙酰化水平降低 | IC50 (SIRT2): 64.4 ± 7.09 µM; IC50 (SIRT3): 204 ± 16.2 µM; IC50 (SIRT5): 32.5 ± 1.15 µM |
| 3.41 ± 0.19 µM |  | O=C1OC(c2ccccc2)OC(=O)C1=Cc1ccc(OCc2ccc3c(c2)OCO3)cc1 (stereo not drawn) [Compound S17, 5-[4-(1,3-Benzodioxolane-5-alkylmethoxy)benzylidene] -2-phenyl-1,3-dioxane-4,6-dione] |  |  |
| 4.51 ± 1.17 µM |  | O=C(COc1ccc(C=C2C(=O)OC(c3ccccc3)OC2=O)cc1)Nc1ccccc1 (stereo not drawn) [Compound S21, 2-{4-[(4,6-Dioxo-2-phenyl-1,3-dioxane-5-ylbenzylidene)methyl]phenoxy} -N-phenylacetamide] |  |  |
